# In publication PMC5460289, “Identification of New Shikonin Derivatives as Antitumor Agents Targeting STAT3 SH2 Domain” (Scientific Reports, 2017):
# Test system: STAT3 nuclear localization in MDA-MB-231 cells
# Test: STAT3 nuclear localization (cytoplasmic and nuclear extracts, Western blot)
# Type: cell-based, human
# Conditions: MDA-MB-231, 24 h
# Protocol: It is known that the dimerization of STAT3 is induced by the phosphorylation at residue Tyr 705, which then leads to its nuclear translocation. Herein, we investigated the effect of PMM-172 and Stattic on STAT3 nuclear translocation. The cytoplasmic and nuclear proteins of treated cells were extracted and the expressions of STAT3 in both fractions were examined.
# Figure 7 MDA-MB-231 cells were treated with indicated concentrations of PMM-172 or Stattic for 24 h, the expression levels of STAT3 in cytoplasmic and nuclear extracts were examined and relative expression levels were analyzed by Image J software. β-actin and Lamin B1 served as markers of cytoplasmic and nuclear extractions, respectively. […] (C) MCF-10A cells were treated with the indicated concentrations of PMM-172 for 24 h. PMM-172 had no effect on the level of the pSTAT3 level in MCF-10A cells. […] Data were shown as mean ± SD from three independent experiments, **P < 0.01. Cropped blots/gels were used in the figure and the gels had been run under the same experimental conditions; the full-length blots/gels are presented in Supplementary Figure S3.
# To examine the relative proportion of STAT3 in the cytoplasm and nucleus, cytoplasmic and nuclear extracts were prepared. In brief, control and treated cells were collected and suspended in a buffer containing 10 mM HEPES (pH 7.9), 10 mM KCl, 0.1 mM EDTA (pH 8.0), 0.1 mM EGTA (pH 7.0), 1 mM DTT, 0.5 mM PMSF, 2 μg/mL leupeptin, 2 μg/mL aprotonin, 0.5 mg/mL benzamidine. After 15 min, NP-40 (0.25%) was added, and cell lysate was vortexed for 10 s and centrifuged at 10000 rmp at 4 °C for 1 min. […] The protein content in the nuclear and cytoplasmic fractions was determined using a Pierce BCA protein assay kit.
# Cells were rinsed twice with cold PBS and then lysed with RIPA buffer containing a protease inhibitor mixture at 1:100 dilution on ice for 30 min. Insoluble components of cell lysates were removed by centrifugation (4 °C, 12000 rmp, 10 min), and protein concentrations were measured using a Pierce BCA protein assay kit. […]
smiles,measurement,value
"COc1cc(OC)cc(-c2nnc(SCC(=O)O[C@H](CC=C(C)C)C3=CC(=O)c4c(O)ccc(O)c4C3=O)o2)c1 [PMM-172, (R)-1-(5,8-dihydroxy-1,4-dioxo-1,4-dihydronaphthalen-2-yl)-4-methylpent-3-en-1-yl 2-((5-(3,5-dimethoxyphenyl)-1,3,4-oxadiazol-2-yl)thio)acetate]",level of STAT3 in the cytoplasmic fraction,slightly increased
same,level of STAT3 in the nuclear fraction,decreased by PMM-172 in a dose-dependent manner
